Results reported in patent publication US12642270B2, “Substituted thiophene carboxamides, thiophene carboxylic acids and derivatives thereof” (Bayer Aktiengesellschaft, priority 2019, dated 2026).

Assay: Log P by HPLC on reversed phase columns (EEC directive 79/831 Annex V.A8)
Assay type: physicochemical
Settings: method [a]
Protocol: In the above tables, measurement of Log P values was performed according to EEC directive 79/831 Annex V.A8 by HPLC (High Performance Liquid Chromatography) on reversed phase columns with the following methods: • ^[a] Log P value is determined by measurement of LC-UV, in an acidic range, with 0.1% formic acid in water and acetonitrile as eluent (linear gradient from 10% acetonitrile to 95% acetonitrile). • ^[b] Log P value is determined by measurement of LC-UV, in a neutral range, with 0.001 molar ammonium acetate solution in water and acetonitrile as eluent (linear gradient from 10% acetonitrile to 95% acetonitrile). • ^[c] Log P value is determined by measurement of LC-UV, in an acidic range, with 0.1% phosphoric acid and acetonitrile as eluent (linear gradient from 10% acetonitrile to 95% acetonitrile). If more than one Log P value is available within the same method, all the values are given and separated by “+”. Calibration was done with straight-chain alkan2-ones (with 3 to 16 carbon atoms) with known Log P values (measurement of Log P values using retention times with linear interpolation between successive alkanones). Lambda-max-values were determined using UV-spectra from 200 nm to 400 nm and the peak values of the chromatographic signals.

Row | Structure (SMILES) | LogP
1 | CCOC(=O)C(CCSC)NC(=O)c1sc(Cl)c(Br)c1Cl (centres unmarked) [1.0186] | 4.47^[a]
2 | CCOC(=O)C(Cc1ccccc1)NC(=O)c1sc(Cl)c(Br)c1Cl (centres unmarked) [1.0187] | 5.04^[a]
3 | N#CCNC(=O)c1sc(Cl)c(Cl)c1I [1.0188] | 2.72^[a]
4 | CCOC(=O)CCNC(=O)c1sc(Cl)c(Cl)c1I [1.0189] | 3.47^[a]
5 | COC(=O)C(NC(=O)c1sc(Cl)c(Cl)c1I)C1CC1 (centres unmarked) [1.0190] | 3.84^[a]
6 | CCOC(=O)C1(NC(=O)c2sc(Cl)c(Cl)c2I)CCC1 [1.0191] | 4.12^[a]
7 | COC(=O)C(CC(F)F)NC(=O)c1sc(Cl)c(Cl)c1I (centres unmarked) [1.0192] | 3.64^[a]
8 | N#CCNC(=O)c1sc(Br)c(Cl)c1Cl [1.0193] | 2.67^[a]
9 | COC(=O)CNC(=O)c1sc(Br)c(Cl)c1Cl [1.0194] | 2.86^[a]
10 | CCOC(=O)CNC(=O)c1sc(Br)c(Cl)c1Cl [1.0195] | 3.28^[a]
11 | CCOC(=O)CCNC(=O)c1sc(Br)c(Cl)c1Cl [1.0196] | 3.47^[a]
12 | CCOC(=O)C1(NC(=O)c2sc(Br)c(Cl)c2Cl)CC1 [1.0197] | 3.47^[a]
13 | COC(=O)C(NC(=O)c1sc(Br)c(Cl)c1Cl)C1CC1 (centres unmarked) [1.0198] | 3.87^[a]
14 | CCOC(=O)C1(NC(=O)c2sc(Br)c(Cl)c2Cl)CCC1 [1.0199] | 4.26^[a]
15 | CCOC(=O)C(NC(=O)c1sc(Br)c(Cl)c1Cl)C(C)C (centres unmarked) [1.0200] | 4.89^[a]
16 | COC(=O)C(CC(F)F)NC(=O)c1sc(Br)c(Cl)c1Cl (centres unmarked) [1.0201] | 3.60^[a]
17 | CCOC(=O)C(CC(C)C)NC(=O)c1sc(Br)c(Cl)c1Cl (centres unmarked) [1.0202] | 5.16^[a]
18 | CCOC(=O)C(CCSC)NC(=O)c1sc(Br)c(Cl)c1Cl (centres unmarked) [1.0203] | 4.44^[a]
19 | CCOC(=O)C(Cc1ccccc1)NC(=O)c1sc(Br)c(Cl)c1Cl (centres unmarked) [1.0204] | 5.00^[a]
20 | N#CCNC(=O)c1sc(Br)c(Br)c1F [1.0205] | 2.41^[a]
21 | N#CCNC(=O)c1sc(Cl)c(Br)c1Br [1.0206] | 2.72^[a]
22 | COC(=O)CNC(=O)c1sc(Cl)c(Br)c1Br [1.0207] | 2.91^[a]
23 | CCOC(=O)CNC(=O)c1sc(Cl)c(Br)c1Br [1.0208] | 3.35^[a]
24 | CCOC(=O)CCNC(=O)c1sc(Cl)c(Br)c1Br [1.0209] | 3.57^[a]
25 | CCOC(=O)C1(NC(=O)c2sc(Cl)c(Br)c2Br)CC1 [1.0210] | 3.48^[a]

Row | Structure (SMILES) | LogP
26 | COC(=O)C(NC(=O)c1sc(Cl)c(Br)c1Br)C1CC1 (centres unmarked) [1.0211] | 3.89^[a]
27 | CCOC(=O)C1(NC(=O)c2sc(Cl)c(Br)c2Br)CCC1 [1.0212] | 4.24^[a]
28 | CCOC(=O)C(NC(=O)c1sc(Cl)c(Br)c1Br)C(C)C (centres unmarked) [1.0213] | 4.89^[a]
29 | COC(=O)C(CC(F)F)NC(=O)c1sc(Cl)c(Br)c1Br (centres unmarked) [1.0214] | 3.64^[a]
30 | CCOC(=O)C(CC(C)C)NC(=O)c1sc(Cl)c(Br)c1Br (centres unmarked) [1.0215] | 5.18^[a]
31 | CCOC(=O)C(CCSC)NC(=O)c1sc(Cl)c(Br)c1Br (centres unmarked) [1.0216] | 4.40^[a]
32 | CCOC(=O)C(Cc1ccccc1)NC(=O)c1sc(Cl)c(Br)c1Br (centres unmarked) [1.0217] | 5.04^[a]
33 | O=C(NC(Cc1ccccc1)C(=O)O)c1sc(Br)c(Br)c1F (centres unmarked) [1.0226] | 3.22^[a]
34 | O=C(O)CNC(=O)c1sc(Br)c(Br)c1F [1.0227] | 2.01^[a]
35 | O=C(NC(CO)C(=O)O)c1sc(Br)c(Br)c1F (centres unmarked) [1.0228] | 1.77^[a]
36 | CC(C)CC(NC(=O)c1sc(Br)c(Br)c1F)C(=O)O (centres unmarked) [1.0229] | 3.34^[a]
37 | NC(=O)CCC(NC(=O)c1sc(Br)c(Br)c1F)C(=O)O (centres unmarked) [1.0230] | 1.65^[a]
38 | O=C(NC(Cc1c[nH]c2ccccc12)C(=O)O)c1sc(Br)c(Br)c1F (centres unmarked) [1.0231] | 3.05^[a]
39 | CCOC(=O)C1(NC(=O)c2sc(Cl)c(Cl)c2C#N)CC1 [1.0232] | 2.72^[a]
40 | CC(NC(=O)c1sc(Br)c(Br)c1F)C(=O)O (centres unmarked) [1.0233] | 2.28^[a]
41 | CC(C)C(NC(=O)c1sc(Br)c(Br)c1F)C(=O)O (centres unmarked) [1.0234] | 2.97^[a]
42 | CCOC(=O)CNC(=O)c1sc(Cl)c(Cl)c1C#N [1.0236] | 2.52^[a]
43 | CCOC(=O)C(CCSC)NC(=O)c1cc(Cl)c(Br)s1 (centres unmarked) [1.0237] | 3.59^[a]
44 | CCOC(=O)C(CCSC)NC(=O)c1cc(Br)c(Cl)s1 (centres unmarked) [1.0238] | 3.65^[a]
45 | COC(=O)CNC(=O)c1cc(Cl)c(Br)s1 [1.0239] | 2.23^[a]
46 | COC(=O)CNC(=O)c1cc(Br)c(Cl)s1 [1.0240] | 2.36^[a]
47 | COC(=O)CNC(=O)c1sc(C#N)c(Br)c1C [1.0241] | 2.14^[a]
48 | CCOC(=O)C(CCSC)NC(=O)c1sc(C#N)c(Br)c1C (centres unmarked) [1.0242] | 3.34^[a]
49 | COC(=O)C1(NC(=O)c2sc(C#N)c(Br)c2C)CC1 [1.0243] | 2.26^[a]
50 | CCOC(=O)C1(NC(=O)c2sc(C#N)c(Br)c2C)CCC1 [1.0244] | 3.07^[a]

Row | Structure (SMILES) | LogP
51 | CCOC(=O)C(CC(C)C)NC(=O)c1sc(C#N)c(Br)c1C (centres unmarked) [1.0245] | 3.85^[a]
52 | O=C(O)CNC(=O)c1cc(Cl)c(Br)s1 [1.0247] | 1.79^[a]
53 | O=C(O)CNC(=O)c1cc(Br)c(Cl)s1 [1.0248] | 1.81^[a]
54 | Cc1c(C(=O)NCC(=O)O)sc(C#N)c1Br [1.0249] | 1.61^[a]
55 | Cc1c(C(=O)NC2(C(=O)O)CC2)sc(C#N)c1Br [1.0250] | 1.84^[a]
56 | CCSC(=O)C1(NC(=O)c2sc(Cl)c(Cl)c2C)CC1 [1.0251] | 4.08^[a]
57 | CCSC(=O)C1(NC(=O)c2sc(Br)c(Cl)c2C)CC1 [1.0252] | 3.74^[a]
58 | CCSC(=O)C1(NC(=O)c2sc(Cl)c(Br)c2C)CC1 [1.0253] | 3.77^[a]
59 | Cc1c(C(=O)NC(C(=O)O)C2CC2)sc(Br)c1Cl (centres unmarked) [1.0254] | 2.64^[a]
60 | Cc1c(C(=O)NC(C(=O)O)C2CC2)sc(Cl)c1Br (centres unmarked) [1.0255] | 2.67^[a]
61 | NC(=O)CC(NC(=O)c1sc(Br)c(Br)c1F)C(=O)O (centres unmarked) [1.0256] | 1.66^[a]
62 | CCOC(=O)C(C#N)NC(=O)c1sc(Br)c(Br)c1F (centres unmarked) [1.0257] | 3.07^[a]
63 | CCOC(=O)C1(NC(=O)c2sc(C#N)c(Cl)c2C)CC1 [1.0258] | 2.57^[a]
64 | COC(=O)C(NC(=O)c1cc(Cl)c(Br)s1)C1CC1 (centres unmarked) [1.0259] | 3.01^[a]
65 | COC(=O)C(NC(=O)c1cc(Br)c(Cl)s1)C1CC1 (centres unmarked) [1.0260] | 3.07^[a]
66 | COC(=O)C(NC(=O)c1sc(C#N)c(Br)c1C)C1CC1 (centres unmarked) [1.0261] | 2.75^[a]
67 | COC(=O)C(NC(=O)c1sc(Br)c(Br)c1I)C1CC1 (centres unmarked) [1.0262] | 3.81^[a]
68 | COC(=O)C(NC(=O)c1sc(Cl)c(Cl)c1Br)C1CC1 (centres unmarked) [1.0263] | 3.84^[a]
69 | COC(=O)C(NC(=O)c1sc(Br)c(Br)c1Cl)C1CC1 (centres unmarked) [1.0264] | 3.84^[a]
70 | O=C(NC1(C(=O)O)CC1)c1sc(Cl)c(Br)c1Br [1.0265] | 2.41^[a]
71 | CCOC(=O)C(NC(=O)c1sc(Cl)c(Br)c1C)C1CC1 (centres unmarked) [1.0266] | 3.81^[a]
72 | COC(=O)C(NC(=O)c1sc(Cl)c(Br)c1C)C(=O)OC [1.0267] | 3.07^[a]
73 | CCOC(=O)C(CC1CC1)NC(=O)c1sc(Cl)c(Br)c1C (centres unmarked) [1.0268] | 4.30^[a]
74 | COC(=O)C(NC(=O)c1sc(Cl)c(Br)c1C)(C1CC1)C1CC1 [1.0269] | 3.98^[a]
